Data from patent US20180339016A1 (priority 2015, published 2018).
Read-outs that look alike come from different tables or passages of the source.

Tested on: E. coli ATCC 25922
Test: Antibiotic interaction assay (Wimley), 2/3 broth microdilution: MIC alone, MIC of combination, FICI
Type: cell-based
Details: for MIC of combination (μM): antibiotic: concentration of labelled drug in combination with KL-L9P; for FICI of drug with KL-L9P / FICIKL-L9P / FICIantibiotic: labelled drug + KL-L9P; for MIC of drug with 1 μM KL-L9P / dilution of MIC relative to drug alone: with 1 μM of KL-L9P
Experimental: Synergy was evaluated by an antibiotic interaction assay (Wimley, 2015) Using the method of Wimley (BBA, 2015, v. 1848(1), pp. 8-15), synergy between the membrane-activating peptide and an antibiotic was measured by an FICI value (FIG. 17). […] Thus, to accurately examine synergy, a ⅔ dilution method which observes MIC at denser concentration intervals is advantageous over a ½ dilution method in statistical terms. […] In the same manner, the MIC of an antibiotic or repositioning drug (second line) is measured. In the third line, the two compounds are mixed after putting half amount each, and the MIC thereof is measured.
A broth microdilution technique (⅔ dilution) was used together with an MH broth. E. coli treated with an antibiotic and the peptide was incubated in a 37° C. incubator for 18 hours.
To measure the synergy between the membrane-activating peptides and the repositioning drug, a 10× compound was prepared, and then serially diluted ⅔-fold with distilled water. An MH broth (900 μl) was added to and mixed with the 10× compound (100 μl), and then 200 μL of the mixture was taken and added to a 96-well plate. E. coli cultured for one day was adjusted to 0.5 MCF using MCFarland, and diluted 10-fold, and then 10 μl of the dilution was added to each well of the plate (5×10^5 CFU/mL). After addition of the bacterial cells, plate was incubated at 37° C. for 18 hours, and then the OD value at UV-Vis (600 nm) was measured. Cell viability (%)=(OD600 of sample−OD600 of negative control)/(OD600 of positive control−OD600 of negative control)×100.

[1] = Escherichia coli, ATCC25922, 18 h, drug alone, <20% growth of positive control, read-out: MIC of antibiotic
[2] = Escherichia coli, ATCC25922, 18 h, Tables 19-23, read-out: MIC (μM) against E. coli ATCC, 1 compound alone

Row | Compound | MIC [1] [µM] | MIC of combination (μM): antibiotic [µM] | FICI of drug with KL-L9P | FICIKL-L9P | FICIantibiotic | synergy with KL-L9P | also measured
1 | CC[C@H](C)C(=O)O[C@H]1C[C@@H](C)C=C2C=C[C@H](C)[C@H](CC[C@@H]3C[C@@H](O)CC(=O)O3)[C@H]21 [lovastatin] | > 500 | 74.07 | 0.24 | 0.14 | 0.10 | – | –
2 | CC(=O)NC[C@H]1CN(c2ccc(N3CCOCC3)c(F)c2)C(=O)O1 [linezolid] | 71.1 | 15.80 | – | 0.18 | 0.22 | – | lowering of MIC in combination KL-L9P/colistin/linezolid versus alone: 10 fold; MIC [2]: 70 µM; MIC (Escherichia coli, ATCC25922, Example 7, read-out: MIC when the three compounds were used alone): 60 µM; MIC (Escherichia coli, ATCC25922, linezolid alone, read-out: MIC of Linezolid): 83 µM; MIC (μM) against E. coli ATCC, combination of 3 compounds (KL-L9P + colistin + linezolid, concentration of labelled component): 6.7 µM; MIC (μM) against E. coli ATCC, combination of two compounds (KL-L9P + linezolid, concentration of labelled component): 16 µM; MIC (μM) against E. coli ATCC, combination of two compounds (colistin + linezolid, concentration of labelled component): 36 µM; concentration killing E. coli in combination KL-L9P/colistin/linezolid (concentration of labelled component): 6 µM; FICI of drug with colistin (labelled drug + colistin): about 1; MIC (linezolid alone, read-out: MIC of Linezolid): 59 µM; MIC of drug with 1 μM KL-L9P: 10 µM; dilution of MIC relative to drug alone: about 16 fold
3 | O=C(O)c1cn(C2CC2)c2cc(N3CCNCC3)c(F)cc2c1=O [ciprofloxacin] | – | – | – | – | – | not synergistic | –
4 | CN(C)[C@@H]1C(=O)C(C(N)=O)=C(O)[C@@]2(O)C(=O)C3=C(O)c4c(O)cccc4[C@@](C)(O)[C@H]3C[C@@H]12 [tetracyclin] | – | – | – | – | – | not synergistic | –
5 | CC(=O)Oc1ccccc1C(=O)O [aspirin] | 519 | 479.17 | 1.59 | 0.66 | 0.92 | not synergistic | –
6 | COc1cc(/C=C/C(=O)CC(=O)/C=C/c2ccc(O)c(OC)c2)ccc1O [curcumin] | 396 | 78.70 | 0.30 | 0.10 | 0.20 | – | MIC [2]: 300 µM; MIC (μM) against E. coli ATCC, combination of 3 compounds (KL-L9P + colistin + curcumin, concentration of labelled component): 20 µM; MIC (μM) against E. coli ATCC, combination of two compounds (KL-L9P + curcumin, concentration of labelled component): 79 µM; MIC (μM) against E. coli ATCC, combination of two compounds (colistin + curcumin, concentration of labelled component): 83 µM; MIC of drug with 1 μM KL-L9P: 4 µM; dilution of MIC relative to drug alone: about 330 fold
7 | CC(C)c1c(C(=O)Nc2ccccc2)c(-c2ccccc2)c(-c2ccc(F)cc2)n1CC[C@@H](O)C[C@@H](O)CC(=O)O [atorvastatin] | > 500 | 166.67 | 0.60 | 0.38 | 0.22 | – | –
8 | Oc1ccc(C=Cc2cc(O)cc(O)c2)cc1 [resveratrol] | 1770 | 246.91 | 0.25 | 0.11 | 0.14 | – | –
9 | CC(C)Cc1ccc([C@H](C)C(=O)O)cc1 [(S)-ibuprofen] | 12000 | 416.67 | 0.23 | 0.20 | 0.03 | – | MIC [2]: 12000 µM; MIC (μM) against E. coli ATCC, combination of two compounds (KL-L9P + (S)-ibuprofen, concentration of labelled component): 420 µM; MIC (μM) against E. coli ATCC, combination of 3 compounds (KL-L9P + colistin + (S)-ibuprofen, concentration of labelled component): 98 µM; MIC (μM) against E. coli ATCC, combination of two compounds (colistin + (S)-ibuprofen, concentration of labelled component): 830 µM
10 | CC(C)Cc1ccc([C@@H](C)C(=O)O)cc1 [(R)-ibuprofen] | 12000 | 555.56 | 0.27 | 0.23 | 0.05 | – | –
11 | COc1ccc2cc3[n+](cc2c1OC)CCc1cc2c(cc1-3)OCO2 [berberine] | 298 | 273.15 | – | 0.53 | 0.92 | not synergistic | –
